This note sets out measurements from publication PMC3436892, “Novel African Trypanocidal Agents: Membrane Rigidifying Peptides” (PLoS ONE, 2012).

Data set [1] deals with metacyclic T. b. brucei. The data set is described as follows: 2 h in vitro killing assay, metacyclic form. The class given is cell-based, Trypanosoma brucei brucei strain STIB247. The conditions noted are these: 2 h incubation, 1×10^4 cells/mL, HMI 9 with 10 % fetal bovine serum, live cells scored by hemocytometer, at least duplicate (Fig. 1a). Here is the method:
Light microscopy based trypanosome killing assays were performed as previously described in detail, [10], [21], [22]. Metacyclic Trypanosoma brucei brucei strain STIB247 were obtained from dissection of the salivary glands of infected tsetse flies. Newly hatched Glossina morsitans morsitans (24–48 h post eclosion) were fed two defibrinated horse blood meals containing 2×10^6 mL^-1 trypanosomes on two separate days. Flies were then maintained at 25°C in 75 % relative humidity and fed maintenance blood meals three times per week. Following day 20–30, flies were harvested and salivary glands were dissected out and placed into HMI 9 media containing 10 % fetal bovine serum for 30 minutes. Metacyclic cells were expelled into the media by the residual peristalsis of the salivary glands. Cells were collected via centrifugation and maintained in HMI 9 media with 20 % fetal bovine serum at 37°C in 5 % CO2 until use. Killing assays were conducted with 1×10^4 cells/mL in HMI 9 media containing 10 % fetal bovine serum. Live cells were scored via hemocytometer after 2 h incubation. Trypanosoma vivax strain ILRAD V34 and Trypanosoma congolense strain IL3000 were grown from stabilites in donor ICR mouse (Harlan, United Kingdom). […] Cells were incubated at 37°C for 2 h and live cells were scored visually via hemocytometer. […]

The test system of data set [2] is BSF T. b. brucei VSG. As to the kind of experiment: FRAP of surface VSG. The format is cell-based, strain 427. Conditions: 8 µM peptide, 10 min at 37°C, cells immobilized in gelatin, line FRAP at 20°C (Fig. 2c). Here is the method:
Bloodstream form T. b. brucei, strain 427, expressing VSG MITat1.6 were cultivated in HMI 9 media with 10% fetal calf serum. 1×10^7 cells were washed three times with ice cold trypanosome dilution buffer (TDB; 5 mM KCl, 80 mM NaCl, 1 mM MgSO4, 20 mM Na2HPO4, 2 mM NaH2PO4, 20 mM glucose, pH 7.6). The cell density was adjusted to 1×10^8 cells/mL and labeling of surface proteins was achieved by incubation with 1 µM sulfo-NHS coupled Atto 488 fluorescent dye (ATTO-TEC GmbH, Siegen) for 15 min on ice. After incubation the cells were washed three times with ice cold TDB to remove unbound dye. Labeled T. b. brucei cells were incubated with 8 µM SHP-1 for 10 min at 37°C. The fluorescently labeled cells were mixed 1∶3 with 10% Type-A gelatin from porcine skin (Sigma-Aldrich, Steinheim) in PBS, pH 7.8, at 37°C. 4 µL of the cell gelatin mixture was applied into a cover slide sandwich and mounted into a temperature controlled sample holder. The sample holder was cooled to 20°C until the cells were immobilized. Samples of SHP-1 treated and untreated MITat 1.6 wt cells were prepared identically. […] 10 pre-bleach and 100 post-bleach images were recorded at 2fps. VSG mobile fractions were determined according to Phair et al. (2004) using double normalization. The mobile fraction refers to the percentage of mobile VSG molecules within the measured region. […]

Data set [3] in a line: Parallax analysis of tryptophan penetration depth. The conditions noted are these: 500 nM peptide, PBS, 37°C, 22 h. The class given is physicochemical. On the procedure:
The hydrocarbon penetration depth of tryptophans spaced throughout synthetic peptides corresponding to SHP-1 or SHP-3 (Table S1) was determined by parallax analysis with brominated phosphatidylcholine liposomes. Large unilamellar liposomes composed of egg phosphatidylcholine and 10 mol % 1-palmitoyl-2-(6,7-dibromo)stearoyl-sn-glycero-3-phosphocholine (shallow quencher) or 1-palmitoyl-2-(9,10-dibromo)stearoyl-sn-glycero-3-phosphocholine (deep quencher) were constructed by hydration of a thin dry lipid film with phosphate buffered saline. Resulting multilamellar liposomes were made unilameller via extrusion through polycarbonate filters with 0.1 µm pores. Peptides (500 nM) were incubated with 200 µg/ml liposomes in phosphate buffered saline at 37°C for 22 h. Tryptophan fluorescence at 357 nm was measured from at least triplicate trials in the PerkinElmer Life Sciences LS55 spectrofluorometer and an excitation wavelength of 280 nm for SHP-1 and 290 nm for SHP-2, 10 nm excitation and 9 nm emission slit widths. The distance of tryptophans from the bilayer center (ZCF) is calculated from the equation [12]: [drawing 1] Where LC1 is the distance from the center of the bilayer to the shallow quencher, in this case 10.8 Å for 6,7-dibromo-PC [25], F1 is the intensity of tryptophan in the presence of the shallow quencher and F2 is the tryptophan intensity in the presence of the deep quencher, C is the mole fraction of quencher divided by the area of individual phospholipid (70 Å^2), and L21 is the difference in the depth of the two quenchers (2.7 Å). The hydrocarbon insertion depth of tryptophans is then given by one half the bilayer thickness, 29 Å [25], minus ZCF.

Data set [4] in a line: Circular dichroism spectroscopy. The class given is physicochemical. On the procedure:
Spectra were recorded with a Jasco J-710 spectropolarimeter in a 1 mm quartz cuvette. Measurements were performed with a final concentration of 15 µM SHP-1 added from a stock of ethanol-solubilized peptide (final ethanol concentration 7.5 %) in 10 mM K2PO4, 50 mM Na2PO4, pH 7.5. Lipid associated peptide spectra were recorded with the addition of 0.1 µm unilamellar egg phosphatidylcholine liposomes at a peptide to lipid ration of 0.3. Spectra were averaged from four scans and the appropriate buffer scans were subtracted.
In general terms: Circular dichroism is the unequal absorption of left and right circularly polarised light.

“SDLGAVISLLLWGRQLFA [SHP-1, trypanocidal small hydrophobic peptide derived from an apolipoprotein, with characteristics of a secretory signal peptide]”: the “killing activity against metacyclic T. b. brucei” value in data set [1] is listed as “no killing activity”. The “fraction of laterally mobile surface exposed VSG” value in data set [2] was “decreases”. Moreover, the “distance of tryptophan at position 1 from the membrane interface” value in data set [3] (Trp-substituted variant W1, 200 µg/ml egg PC liposomes with 10 mol % 6,7- or 9,10-dibromo-PC, bilayer thickness 29 Å, at least triplicate) is reported as “approximately 1.1 Å”. The “distance of tryptophan at position 8 from the membrane interface” value in data set [3] (Trp-substituted variant W8, 200 µg/ml brominated egg PC liposomes) is “approximately 7.8 Å”. The “distance of tryptophan at position 18 from the membrane interface” value in data set [3] (Trp-substituted variant W18, 200 µg/ml brominated egg PC liposomes) was approximately 2.0 Å. Further, the “distance of tryptophan at position 12 from the membrane interface” value in data set [3] (native tryptophan, 200 µg/ml brominated egg PC liposomes) is reported as approximately 5.1 Å. In addition, the “F1/F2 ± S.D.” value in data set [3] (ratio of tryptophan fluorescence intensity (357 nm) with shallow (6,7-dibromo-PC, F1) and deep (9,10-dibromo-PC, F2) quencher, 200 µg/ml liposomes, at least triplicate) is given as 0.9676 ± 0.0560. Also, the “secondary structure in the presence of lipid (CD)” value in data set [4] (15 µM peptide with 0.1 µm unilamellar egg phosphatidylcholine liposomes, peptide to lipid ratio 0.3, pH 7.5, peak 193 nm, minimum 208 nm) is reported as “α-helical structure”. For the same sequence, in data set [4] (15 µM peptide, 7.5 % ethanol, 10 mM K2PO4, 50 mM Na2PO4, pH 7.5, peak 195 nm, crossover about 205 nm, minimum 218 nm), the “secondary structure in solution (CD)” value is “β-sheet conformation”.
